Results taken from paper PMC2838427 (British journal of haematology, 2009).
“And” between values parts separate entries of the source, which are not always exact repeats. Identical values can stand only once.

Key:
[1] = tested on: ABCB1 gene expression in PBMCs; conditions: human, in vivo
[2] = tested on: histone H3 acetylation in peripheral blood mononuclear cells (PBMCs); conditions: human, in vivo
[3] = tested on: fetal hemoglobin (HbF); experiment: Blood fetal hemoglobin; assay type: in vivo, patients
[4] = tested on: ABCB1 gene expression in tumor biopsy samples; conditions: in vivo
[5] = patients with chronic myelogenous leukemia; ref Picard, et al 2007; cited from earlier work

C/C=C1\NC(=O)[C@H]2CSSCC/C=C/[C@H](CC(=O)N[C@H](C(C)C)C(=O)N2)OC(=O)[C@H](C(C)C)NC1=O [romidepsin, (E)-(1S,4S,10S,21R)-7-[(Z)-Ethylidene]-4,21-diisopropyl-2-oxa-12,13-dithi a-5,8,20,23-tetraazabicyclo[8,7,6]-tricos-16-ene-3,6,9,22-pentanone]
median fold increase in ABCB1 mRNA expression [1]: 2.74 and 1.78 | patients having ABCB1 levels 2-fold or higher than baseline [1]: 56% and 37% | samples again showing less than 2-fold ABCB1 increase at 24 h [1]: 71% | patients with at least a 2-fold increase in global histone acetylation [2]: 73% | patients with fold increase x < 2 in histone acetylation, number (%) [2]: 21 (57%) and 11 (61%) | median time to peak induction of HbF ([3]; 61 patients): 99 days | range of time to peak induction of HbF ([3]; 61 patients): 27 to 295 days | HbF fold change, range ([3]; CR/PR): 1.69–23.00 | patients with fold increase 2 ≤ x < 4 in hemoglobin F, number (%) ([3]; Final vs baseline, n=49): 9 (18%) | patients with fold increase x < 2 in hemoglobin F, number (%) ([3]; Final vs baseline, n=49): 20 (41%) | patients with fold increase x ≥ 4 in hemoglobin F, number (%) ([3]; Final vs baseline, n=49): 20 (41 %) | patients with fold increase 2 ≤ x < 4 in hemoglobin F, number (%) ([3]; Peak vs baseline, n=52): 7 (13%) | patients with fold increase x < 2 in hemoglobin F, number (%) ([3]; Peak vs baseline, n=52): 14 (27%) | patients with fold increase x ≥ 4 in hemoglobin F, number (%) ([3]; Peak vs baseline, n=52): 31 (60%) | HbF fold change, range ([3]; SD/PD): 0.95–11.50 | patients with > 4-fold rise in HbF levels ([3]; peak vs baseline): 60% | patients with two-fold or greater induction of fetal hemoglobin ([3]; peak vs baseline, zero baselines reassigned 0.2%): 73% | fold increase in ABCB1 in a biopsy sample, one patient [4]: greater than 30 | fold increase in ABCB1 in biopsy samples, all other values [4]: below 8 | increase in median ABCB1 level on-study to off study [4]: 50% | pre/post sample sets with greater than 50% increase in ABCB1 expression level [4]: Fourteen | pre/post samples with two-fold or greater increase in ABCB1 level [4]: eight

Cc1ccc(NC(=O)c2ccc(CN3CCN(C)CC3)cc2)cc1Nc1nccc(-c2cccnc2)n1 [imatinib]
trough plasma threshold associated with response [5]: 1002 ng/mL
